Test results from ChEMBL document CHEMBL1133403 (Bioorg Med Chem Lett, 2000).

Assays:
[1] = biological target: T1, Mineralocorticoid receptor (Homo sapiens, UniProt P08235); assay: Cross-reactivity as binding to human mineralocorticoid receptor (hMR); format: functional
T1 sequence (P08235 whole entry): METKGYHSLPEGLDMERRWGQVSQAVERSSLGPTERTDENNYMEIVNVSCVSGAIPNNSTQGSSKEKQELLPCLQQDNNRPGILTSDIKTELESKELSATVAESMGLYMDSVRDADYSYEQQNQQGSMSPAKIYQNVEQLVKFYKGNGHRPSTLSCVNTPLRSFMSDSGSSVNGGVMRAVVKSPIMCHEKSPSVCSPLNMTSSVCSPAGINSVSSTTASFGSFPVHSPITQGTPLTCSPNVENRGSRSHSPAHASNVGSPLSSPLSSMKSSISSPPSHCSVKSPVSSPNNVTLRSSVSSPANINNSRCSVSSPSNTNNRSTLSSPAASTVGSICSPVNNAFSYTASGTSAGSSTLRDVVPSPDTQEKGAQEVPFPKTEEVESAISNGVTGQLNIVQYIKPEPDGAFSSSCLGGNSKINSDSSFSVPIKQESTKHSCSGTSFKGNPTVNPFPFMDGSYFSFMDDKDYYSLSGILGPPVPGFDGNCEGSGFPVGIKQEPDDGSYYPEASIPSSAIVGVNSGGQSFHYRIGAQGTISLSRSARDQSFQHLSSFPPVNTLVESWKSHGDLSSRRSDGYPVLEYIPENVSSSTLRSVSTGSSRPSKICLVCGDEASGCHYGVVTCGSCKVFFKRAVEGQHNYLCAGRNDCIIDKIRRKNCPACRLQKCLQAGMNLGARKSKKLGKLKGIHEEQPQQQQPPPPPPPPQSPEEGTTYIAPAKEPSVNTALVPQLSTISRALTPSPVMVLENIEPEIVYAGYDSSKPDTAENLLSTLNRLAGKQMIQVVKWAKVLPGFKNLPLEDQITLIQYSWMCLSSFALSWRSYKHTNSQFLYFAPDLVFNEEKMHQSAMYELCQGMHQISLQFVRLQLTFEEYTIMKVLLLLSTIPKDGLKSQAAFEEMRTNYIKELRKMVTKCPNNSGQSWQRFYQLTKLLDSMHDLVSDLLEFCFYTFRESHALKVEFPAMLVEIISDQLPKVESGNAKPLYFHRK

[2] = biological target: T2, Mineralocorticoid receptor (Homo sapiens) (UniProt P08235); assay: Percent inhibition of mineralocorticoid receptor transcriptional activity at aldosterone EC50; format: functional
T2 sequence (whole entry): T1 sequence (P08235 whole entry)

Progesterone receptor [3] = biological target: T3, Progesterone receptor (Homo sapiens, UniProt P06401); assay: Binding affinity against human progesterone receptor (hPR) in a competitive binding assay
T3 sequence (P06401 whole entry): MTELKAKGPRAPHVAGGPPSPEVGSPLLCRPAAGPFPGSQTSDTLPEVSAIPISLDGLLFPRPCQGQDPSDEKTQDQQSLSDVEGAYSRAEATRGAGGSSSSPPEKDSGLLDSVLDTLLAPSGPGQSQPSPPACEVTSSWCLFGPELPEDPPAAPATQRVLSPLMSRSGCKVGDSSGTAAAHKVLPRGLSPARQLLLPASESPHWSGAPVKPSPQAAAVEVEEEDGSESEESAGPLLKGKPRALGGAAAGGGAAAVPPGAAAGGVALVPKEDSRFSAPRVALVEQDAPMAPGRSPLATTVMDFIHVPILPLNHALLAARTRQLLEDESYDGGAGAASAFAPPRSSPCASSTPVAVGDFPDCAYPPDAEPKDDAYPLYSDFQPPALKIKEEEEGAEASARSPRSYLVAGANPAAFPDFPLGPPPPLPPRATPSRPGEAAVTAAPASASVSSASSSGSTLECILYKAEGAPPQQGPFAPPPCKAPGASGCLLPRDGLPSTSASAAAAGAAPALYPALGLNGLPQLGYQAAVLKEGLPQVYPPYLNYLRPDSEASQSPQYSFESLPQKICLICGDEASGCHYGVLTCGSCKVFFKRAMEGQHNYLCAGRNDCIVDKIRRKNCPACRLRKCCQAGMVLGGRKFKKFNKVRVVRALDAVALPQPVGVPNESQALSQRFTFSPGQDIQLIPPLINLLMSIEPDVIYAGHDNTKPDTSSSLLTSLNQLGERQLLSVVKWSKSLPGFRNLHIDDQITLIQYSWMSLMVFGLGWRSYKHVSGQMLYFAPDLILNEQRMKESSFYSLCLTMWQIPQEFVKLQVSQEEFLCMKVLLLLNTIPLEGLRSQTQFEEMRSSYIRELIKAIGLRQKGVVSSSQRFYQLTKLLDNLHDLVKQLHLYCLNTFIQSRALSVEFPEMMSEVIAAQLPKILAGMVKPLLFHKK

Progesterone receptor [4] = biological target: T3, Progesterone receptor; assay: Human progesterone receptor (hPR) agonist activity expressed in CV-1 cells; format: functional, cell-based
Progesterone receptor [5] = biological target: T3, Progesterone receptor; assay: Human progesterone receptor (hPR) agonist activity in T47D human breast cancer cell line; format: functional, cell-based
Progesterone receptor [6] = biological target: T3, Progesterone receptor; assay: Antagonist activity against human progesterone receptor (hPR) in T47D human breast cancer cell line; format: functional, cell-based
[7] = biological target: T4, Glucocorticoid receptor (Homo sapiens) (UniProt P04150); assay: Percent inhibition of glucocorticoid receptor transcriptional activity at Dexamethasone EC50; format: functional
T4 sequence (whole entry): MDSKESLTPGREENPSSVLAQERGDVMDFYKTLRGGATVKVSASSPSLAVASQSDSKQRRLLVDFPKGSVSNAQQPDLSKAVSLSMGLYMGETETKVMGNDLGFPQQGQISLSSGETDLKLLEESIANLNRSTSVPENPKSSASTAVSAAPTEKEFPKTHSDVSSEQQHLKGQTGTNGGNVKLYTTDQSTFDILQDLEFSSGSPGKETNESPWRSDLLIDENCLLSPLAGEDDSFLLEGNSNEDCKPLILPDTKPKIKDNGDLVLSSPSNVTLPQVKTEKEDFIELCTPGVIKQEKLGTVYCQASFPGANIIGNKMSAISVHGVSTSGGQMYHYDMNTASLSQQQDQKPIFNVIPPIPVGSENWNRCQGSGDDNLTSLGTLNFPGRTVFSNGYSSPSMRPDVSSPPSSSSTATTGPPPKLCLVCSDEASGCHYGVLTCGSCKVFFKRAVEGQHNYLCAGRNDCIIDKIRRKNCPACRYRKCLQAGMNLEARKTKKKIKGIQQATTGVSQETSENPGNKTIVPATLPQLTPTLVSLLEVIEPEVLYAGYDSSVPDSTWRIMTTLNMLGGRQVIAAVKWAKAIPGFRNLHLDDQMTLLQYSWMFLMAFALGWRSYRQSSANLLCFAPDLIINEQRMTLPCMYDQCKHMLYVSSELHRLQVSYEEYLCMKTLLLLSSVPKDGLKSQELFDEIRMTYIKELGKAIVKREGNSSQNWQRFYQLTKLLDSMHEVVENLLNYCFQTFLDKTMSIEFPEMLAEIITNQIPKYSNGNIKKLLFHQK

Glucocorticoid receptor = biological target: T5, Glucocorticoid receptor (Homo sapiens, UniProt P04150); assay: Cross-reactivity as binding to human glucocorticoid receptor (hGR); format: functional
T5 sequence (P04150 whole entry): T4 sequence (whole entry)

Androgen receptor = biological target: T6, Androgen receptor (Homo sapiens, UniProt P10275); assay: Cross-reactivity as binding to human androgen receptor (hAR); format: functional
T6 sequence (P10275 whole entry): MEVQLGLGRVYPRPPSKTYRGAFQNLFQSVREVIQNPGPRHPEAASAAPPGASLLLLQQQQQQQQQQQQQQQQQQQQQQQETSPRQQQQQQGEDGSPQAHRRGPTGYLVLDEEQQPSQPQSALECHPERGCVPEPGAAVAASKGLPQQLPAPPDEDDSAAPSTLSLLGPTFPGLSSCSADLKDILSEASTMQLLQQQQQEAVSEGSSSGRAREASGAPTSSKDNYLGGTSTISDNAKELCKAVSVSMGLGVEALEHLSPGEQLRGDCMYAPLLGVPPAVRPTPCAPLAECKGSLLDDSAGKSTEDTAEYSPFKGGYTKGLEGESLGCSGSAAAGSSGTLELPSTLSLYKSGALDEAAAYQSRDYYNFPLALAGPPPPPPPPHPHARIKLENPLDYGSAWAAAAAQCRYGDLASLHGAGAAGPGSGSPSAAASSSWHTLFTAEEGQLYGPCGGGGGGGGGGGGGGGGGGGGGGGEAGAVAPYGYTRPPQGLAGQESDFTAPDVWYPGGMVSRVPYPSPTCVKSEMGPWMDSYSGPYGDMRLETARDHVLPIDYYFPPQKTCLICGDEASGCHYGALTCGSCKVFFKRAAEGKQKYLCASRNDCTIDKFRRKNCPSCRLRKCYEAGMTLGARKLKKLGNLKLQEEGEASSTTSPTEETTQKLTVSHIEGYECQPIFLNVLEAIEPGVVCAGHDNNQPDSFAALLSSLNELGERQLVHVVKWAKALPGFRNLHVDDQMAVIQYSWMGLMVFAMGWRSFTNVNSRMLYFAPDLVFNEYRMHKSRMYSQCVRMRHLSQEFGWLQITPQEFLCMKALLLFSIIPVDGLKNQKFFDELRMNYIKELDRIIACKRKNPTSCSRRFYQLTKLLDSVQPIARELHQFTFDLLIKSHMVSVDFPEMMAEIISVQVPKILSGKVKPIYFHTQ

## CC1=CC(C)(C)Nc2ccc(-c3csc(C#N)c3)cc21
[1]
  IC50: 2050 nM
[2]
  Efficacy: 88%
Progesterone receptor [3]
  Ki: 3.5 nM
Progesterone receptor [4]
  EC50: 1800 nM
Progesterone receptor [5]
  EC50: 245 nM
Progesterone receptor [6]
  IC50: 106 nM
[7]
  Efficacy: 83%
Glucocorticoid receptor
  IC50: 2600 nM
Androgen receptor
  IC50: 494 nM
